Where two headings read alike, the source gives them in different places.
Tests used:
[1] = biological target: T1, NS5B (Replizyme, UK), HCV genotype 1b Δ21 RdRp (UniProt P26663); format: biochemical, hepatitis C virus
T1 construct: other: Replizyme enzyme
Protocol: (§1) An RNA-dependant RNA polymerase assay was performed in a 96-well round bottom polypropylene plates (Costar) with a 50 μl reaction volume containing 20 mM HEPES pH 7.2-7.5 (Gibco), 1 mM DTT (Sigma), 0.4 mM MnCl2 (Sigma), 70 nM RNA template-primer PolyA (Amersham)-Oligo dT(20) biotin labelled (Roche), 20 μM UTP (Roche), 5U RNasin (Promega), 50 mM NaCl (Ambion), 4 μM DIG-11-UTP (Roche), test compound at desired concentration, 5% DMSO and 50-80 ng NS5B (Replizyme(V, UK) or 200-500 ng of recombinant NS5BA21 HCV RdRp enzyme. After 1 hour incubation at 30° C, the reaction is stopped by the addition of 5 μl 0.5 M EDTA and the solution is transferred to a streptavidin coated 96 well plate (Roche). Standard ELISA detection using Anti DIG-POD antibody (Roche) and BM Blue substrate is applied before measuring Abs at 450 nm. An illustration of the assay can be found in FIG. 1.

[2] = biological target: recombinant NS5BΔ21 HCV RdRp enzyme (genotype 1b, produced in-house) (UniProt P26663); test: RdRp assay with ELISA, recombinant in-house enzyme; format: biochemical, hepatitis C virus; details: read-out: Experimental IC50, Recombinant
Protocol: as §1

[3] = biological target: T2, HCV RdRp (Hepatitis C virus genotype 1b, UniProt P26663); details: literature value; read-out: Published IC50; cited from earlier work
T2 construct: The HCV encoded RNA-dependent RNA polymerase (HCV RdRp), also known as non-structural protein 5B (NS 5B)

[4] = test system: NS5B (Replizyme, UK), HCV genotype 1b Δ21 RdRp; format: biochemical, hepatitis C virus
Protocol: as §1

[5] = biological target: HCV RdRp (NS5B) (UniProt P26663); format: biochemical, hepatitis C virus
[6] = test system: Huh-7 cells, genotype 1b HCV replicon; test: Inhibition of HCV replication in cell culture, genotype 1b replicon; format: cell-based, hepatitis C virus; details: for EC50: Huh-7, genotype 1b replicon, intracellular HCV RNA 24 h after 3 daily doses; for Selectivity Index (CC50/EC50): genotype 1b replicon, CC50 by neutral red uptake
Protocol: (§2) Test compounds were solubilized at 30 mM in 100% tissue culture grade DMSO (Sigma, Inc.). Aliquots of test compounds sufficient for one daily treatment were made in individual tubes and all material was stored at −20° C. On each day of treatment, daily aliquots of the test compounds were suspended in culture medium at room temperature and immediately added to the cell cultures. Compounds were added to dividing cultures once daily for three days at concentrations ranging from about 30 μM to about 0.0003 μM. Media was changed with each addition of compound. The assays were started when cell cultures were at about 30-50% confluence, and the cells reached confluence during the last day of treatment. The assays included untreated control cultures (six total), and triplicate cultures treated with α-interferon and ribavirin as positive antiviral and toxicity controls.
(§3) Intracellular HCV RNA levels and cytotoxicity were assessed in triplicate 24 hours after the last compound dose.

[7] = test system: Huh-7 cells, sub-genomic genotype 1a HCV replicon H/SG-Neo; test: Inhibition of HCV replication in cell culture, genotype 1a replicon; format: cell-based, hepatitis C virus; details: for EC50: Huh-7, genotype 1a replicon, intracellular HCV RNA 24 h after 3 daily doses; for Selectivity Index (CC50/EC50): genotype 1a replicon, CC50 by neutral red uptake
Protocol: as §2, §3

[8] = read-out: Experimental IC50, Replizyme; Replizyme enzyme
[9] = Hepatitis C virus, Huh-7, 24 h, read-out: EC50

Chain of HCV RdRp (NS5B) (P26663 whole entry, looked up): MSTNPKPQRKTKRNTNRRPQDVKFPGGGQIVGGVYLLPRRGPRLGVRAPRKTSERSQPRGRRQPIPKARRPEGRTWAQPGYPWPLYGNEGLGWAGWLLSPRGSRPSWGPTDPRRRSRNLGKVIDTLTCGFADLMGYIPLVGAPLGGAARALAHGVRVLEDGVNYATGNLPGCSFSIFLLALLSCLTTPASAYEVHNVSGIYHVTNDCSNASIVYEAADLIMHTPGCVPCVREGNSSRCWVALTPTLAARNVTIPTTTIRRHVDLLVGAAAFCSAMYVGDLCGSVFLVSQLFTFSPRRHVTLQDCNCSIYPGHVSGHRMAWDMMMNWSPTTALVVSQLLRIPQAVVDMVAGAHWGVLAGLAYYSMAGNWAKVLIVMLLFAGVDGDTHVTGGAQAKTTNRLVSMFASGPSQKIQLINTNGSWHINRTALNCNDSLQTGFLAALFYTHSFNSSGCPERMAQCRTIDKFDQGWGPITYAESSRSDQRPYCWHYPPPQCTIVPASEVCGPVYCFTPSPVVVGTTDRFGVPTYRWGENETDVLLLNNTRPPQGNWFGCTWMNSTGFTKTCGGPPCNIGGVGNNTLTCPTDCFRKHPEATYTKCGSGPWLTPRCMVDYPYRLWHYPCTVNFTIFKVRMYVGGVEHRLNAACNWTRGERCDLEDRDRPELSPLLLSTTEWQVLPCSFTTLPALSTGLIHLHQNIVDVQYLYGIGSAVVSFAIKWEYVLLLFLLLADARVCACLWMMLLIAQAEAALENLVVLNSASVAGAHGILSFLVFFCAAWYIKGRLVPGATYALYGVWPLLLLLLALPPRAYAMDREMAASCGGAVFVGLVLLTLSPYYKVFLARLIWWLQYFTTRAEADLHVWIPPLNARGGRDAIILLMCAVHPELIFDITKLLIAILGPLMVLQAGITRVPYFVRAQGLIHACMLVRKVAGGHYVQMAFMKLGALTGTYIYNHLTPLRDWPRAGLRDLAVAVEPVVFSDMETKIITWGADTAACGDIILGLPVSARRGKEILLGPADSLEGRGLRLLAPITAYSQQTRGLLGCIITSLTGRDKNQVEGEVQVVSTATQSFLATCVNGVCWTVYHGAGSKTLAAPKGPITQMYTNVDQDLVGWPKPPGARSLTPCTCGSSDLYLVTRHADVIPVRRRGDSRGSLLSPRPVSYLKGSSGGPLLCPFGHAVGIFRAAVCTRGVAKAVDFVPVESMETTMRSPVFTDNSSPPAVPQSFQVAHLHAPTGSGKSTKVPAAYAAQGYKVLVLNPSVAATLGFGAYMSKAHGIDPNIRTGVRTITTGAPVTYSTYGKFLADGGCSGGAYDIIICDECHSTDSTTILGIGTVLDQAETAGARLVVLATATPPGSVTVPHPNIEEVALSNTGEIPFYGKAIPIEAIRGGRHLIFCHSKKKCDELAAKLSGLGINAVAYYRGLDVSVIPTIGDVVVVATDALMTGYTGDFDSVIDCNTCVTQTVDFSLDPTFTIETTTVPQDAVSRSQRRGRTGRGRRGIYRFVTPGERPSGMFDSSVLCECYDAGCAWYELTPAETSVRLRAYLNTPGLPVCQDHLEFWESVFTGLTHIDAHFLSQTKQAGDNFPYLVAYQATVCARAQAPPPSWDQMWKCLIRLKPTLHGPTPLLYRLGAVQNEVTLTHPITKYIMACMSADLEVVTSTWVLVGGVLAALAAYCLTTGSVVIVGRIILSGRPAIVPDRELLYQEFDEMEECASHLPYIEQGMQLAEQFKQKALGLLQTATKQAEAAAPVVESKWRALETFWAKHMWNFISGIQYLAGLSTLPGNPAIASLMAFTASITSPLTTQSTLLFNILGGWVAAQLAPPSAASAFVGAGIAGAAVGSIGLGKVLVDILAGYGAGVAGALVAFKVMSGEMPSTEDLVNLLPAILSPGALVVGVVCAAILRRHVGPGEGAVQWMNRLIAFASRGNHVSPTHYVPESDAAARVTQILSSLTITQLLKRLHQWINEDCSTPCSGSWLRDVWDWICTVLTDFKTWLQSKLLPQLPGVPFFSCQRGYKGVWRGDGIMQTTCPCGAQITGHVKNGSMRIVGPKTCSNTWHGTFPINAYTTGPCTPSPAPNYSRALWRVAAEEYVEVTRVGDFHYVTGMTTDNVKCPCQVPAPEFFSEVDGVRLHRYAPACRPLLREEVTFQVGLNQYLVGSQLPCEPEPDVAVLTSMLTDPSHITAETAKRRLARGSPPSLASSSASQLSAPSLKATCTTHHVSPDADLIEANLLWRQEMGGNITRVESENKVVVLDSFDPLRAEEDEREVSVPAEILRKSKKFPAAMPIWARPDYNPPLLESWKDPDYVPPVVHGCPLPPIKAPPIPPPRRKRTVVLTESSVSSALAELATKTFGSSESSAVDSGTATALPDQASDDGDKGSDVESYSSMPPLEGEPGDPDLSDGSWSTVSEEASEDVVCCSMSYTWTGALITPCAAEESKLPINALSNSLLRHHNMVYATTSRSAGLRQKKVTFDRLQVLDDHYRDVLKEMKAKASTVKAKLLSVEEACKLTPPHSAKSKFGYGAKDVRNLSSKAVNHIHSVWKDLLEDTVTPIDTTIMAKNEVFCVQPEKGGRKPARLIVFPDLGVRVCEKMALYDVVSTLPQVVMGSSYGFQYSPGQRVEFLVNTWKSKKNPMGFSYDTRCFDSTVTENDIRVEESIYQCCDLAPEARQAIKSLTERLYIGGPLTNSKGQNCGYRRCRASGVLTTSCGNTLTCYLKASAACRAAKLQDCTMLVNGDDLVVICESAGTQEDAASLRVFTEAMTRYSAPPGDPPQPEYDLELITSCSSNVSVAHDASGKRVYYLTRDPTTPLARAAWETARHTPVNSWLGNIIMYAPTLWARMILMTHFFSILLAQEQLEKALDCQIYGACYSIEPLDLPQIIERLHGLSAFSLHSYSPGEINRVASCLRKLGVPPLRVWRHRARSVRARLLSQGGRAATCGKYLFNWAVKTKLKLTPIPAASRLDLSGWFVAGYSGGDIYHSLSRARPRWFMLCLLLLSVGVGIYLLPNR
T2 sequence (P26663 2420-3010): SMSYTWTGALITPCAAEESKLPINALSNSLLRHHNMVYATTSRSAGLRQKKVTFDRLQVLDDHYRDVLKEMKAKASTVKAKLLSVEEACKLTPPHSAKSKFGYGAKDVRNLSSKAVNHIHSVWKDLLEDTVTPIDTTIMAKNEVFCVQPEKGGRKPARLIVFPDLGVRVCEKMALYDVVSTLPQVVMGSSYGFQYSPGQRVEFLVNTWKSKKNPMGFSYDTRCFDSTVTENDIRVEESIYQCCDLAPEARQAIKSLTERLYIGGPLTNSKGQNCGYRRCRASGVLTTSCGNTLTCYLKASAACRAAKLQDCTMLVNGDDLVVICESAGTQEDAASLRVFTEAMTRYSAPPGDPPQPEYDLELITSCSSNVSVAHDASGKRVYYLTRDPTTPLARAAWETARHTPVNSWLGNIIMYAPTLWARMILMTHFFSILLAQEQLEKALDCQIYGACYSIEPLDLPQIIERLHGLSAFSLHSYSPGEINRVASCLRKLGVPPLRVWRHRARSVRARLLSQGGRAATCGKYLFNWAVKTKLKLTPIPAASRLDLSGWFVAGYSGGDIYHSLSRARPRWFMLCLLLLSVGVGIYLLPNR

SMILES	IC50 [5]	EC50 [6, 9]	Selectivity Index (CC50/EC50) [6]	other results
CC(C)Cn1c(=O)c(C2=Nc3ccccc3S(=O)(=O)N2)c(O)c2ccccc21	–	–	–	IC50 [1, 8]: 2300 nM; IC50 [2]: 2800 nM; IC50 [3]: 340 nM
CCCCn1c(=O)c(C2=NS(=O)(=O)c3ccccc3N2)c(O)c2ccccc21	–	–	–	IC50 [1, 8]: 1000 nM; IC50 [2]: 1800 nM; IC50 [3]: 240 nM
O=C(O)COc1ccc2[nH]cc(C[C@H](NC(=O)c3ccc4c(c3)nc(-c3ccoc3)n4C3CCCCC3)C(=O)O)c2c1	–	–	–	IC50 [1, 8]: 1300 nM; times less inhibition with the Replizyme enzyme than with the prepared enzyme [4]: about 20; IC50 [2]: 60 nM; IC50 [3]: 1150 nM
O=C(O)c1ccc2c(c1)nc(-c1ccccn1)n2C1CCCCC1	–	–	–	IC50 [1, 8]: 69000 nM; times less inhibition with the Replizyme enzyme than with the prepared enzyme [4]: about 20; IC50 [2]: 3500 nM; IC50 [3]: 4360 nM
O=c1ccn([C@@H]2O[C@H](COP(=O)(O)OP(=O)(O)OP(=O)(O)O)C[C@H]2O)c(=O)[nH]1 [3′-dUTP]	–	–	–	IC50 ([1]; Replizyme enzyme; read-out: Experimental IC50, Replizyme): 130 nM
Cc1ccc(NC(=O)[C@H](CCCCN)NC(=O)Nc2ccc(OCc3ccccc3)cc2)cc1 [Compound 2, (S)-6-AMINO-2-[3-(4-BENZYLOXY-PHENYL)-UREIDO]-HEXANOIC ACID P-TOLYLAMIDE]	10000 to 50000 nM	< 500 nM	>100	EC50 ([7]; Hepatitis C virus): < 500 nM; Selectivity Index (CC50/EC50) [7]: 20 to 100
Cc1ccc(NC(=O)[C@@H](CCCCN)NC(=O)Nc2ccc(OCc3ccccc3)cc2)cc1 [Compound 172, (R)-6-AMINO-2-[3-(4-BENZYLOXY-PHENYL)-UREIDO]-HEXANOIC ACID P-TOLYLAMIDE]	10000 to 50000 nM	500 to 2000 nM	<20	EC50 ([7]; Hepatitis C virus): < 500 nM; Selectivity Index (CC50/EC50) [7]: 20 to 100
Cc1cc2cc(NC(=O)[C@H](CCCCN)NC(=O)Nc3ccc(OCc4ccccc4)cc3)ccc2[nH]1 [Compound 206, (S)-6-AMINO-2-[3-(4-BENZYLOXY-PHENYL)-UREIDO]-HEXANOIC ACID (2-METHYL-1H-INDOL-5-YL)-AMIDE]	10000 to 50000 nM	> 2000 nM	<20	EC50 ([7]; Hepatitis C virus): > 2000 nM; Selectivity Index (CC50/EC50) [7]: <20
NCCCC[C@H](NC(=O)OCC1c2ccccc2-c2ccccc21)C(=O)Nc1ccc(CN)cc1 [Compound 228, (S)-[5-AMINO-1-(4-AMINOMETHYL-PHENYLCARBAMOYL)-PENTYL]-CARBAMIC ACID 9H-FLUOREN-9-YLMETHYL ESTER]	< 10000 nM	–	20 to 100	EC50 ([6]; Hepatitis C virus, Huh-7, 24 h): 500 nM
Cc1cc2cc(NC(=O)[C@H](CCNC(=O)CN)NC(=O)OCC3c4ccccc4-c4ccccc43)ccc2[nH]1 [Compound 237, (S)-[3-(2-AMINO-ACETYLAMINO)-1-(2-METHYL-1H-INDOL-5-YLCARBAMOYL)-PROPYL]-CARBAMIC ACID 9H-FLUOREN-9-YLMETHYL ESTER]	< 10000 nM	> 2000 nM	<20	–
Cc1cc2cc(NC(=O)[C@H](CCNC(=O)CN)NC(=O)Nc3ccc4c(c3)Cc3ccccc3-4)ccc2[nH]1 [Compound 240, (S)-4-(2-AMINO-ACETYLAMINO)-2-[3-(9H-FLUOREN-2-YL)-UREIDO]-N-(2-METHYL-1H-INDOL-5-YL)-BUTYRAMIDE]	10000 to 50000 nM	> 2000 nM	<20	–
Cc1ccc(NC(=O)C[C@H](CCCCN)NC(=O)Nc2ccc(OCc3ccccc3)cc2)cc1 [Compound 246, (S)-7-AMINO-3-[3-(4-BENZYLOXY-PHENYL)-UREIDO]-HEPTANOIC ACID P-TOLYLAMIDE]	10000 to 50000 nM	> 2000 nM	<20	–
Cc1ccc(NC(=O)[C@H](CCCCN)NCc2ccc(NC(=O)Nc3ccncc3)cc2)cc1 [Compound 262, (S)-6-AMINO-2-[4-(3-PYRIDIN-4-YL-UREIDO)-BENZYLAMINO]-HEXANOIC ACID P-TOLYLAMIDE]	< 10000 nM	–	–	EC50 [6]: 2 to 0.5 μM; EC50 [7]: < 500 nM
CC1CCC(NC(=O)[C@H](CCCCN)NC(=O)Nc2ccc(OCc3ccccc3)cc2)CC1 (stereo partly drawn) [Compound 264, (S)-6-AMINO-2-[3-(4-BENZYLOXY-PHENYL)-UREIDO]-HEXANOIC ACID (4-METHYL-CYCLOHEXYL)-AMIDE]	10000 to 50000 nM	< 500 nM	>100	–
Cc1ccc(NC(=O)C(CNC(=O)CN)NC(=O)Nc2ccc(OCc3ccccc3)cc2)cc1 [Compound 268, (S)-3-(2-AMINO-ACETYLAMINO)-2-[3-(4-BENZYLOXY-PHENYL)-UREIDO]-N-P-TOLYL-PROPIONAMIDE]	10000 to 50000 nM	> 2000 nM	<20	–
Cc1ccc(NC(=O)C(CCCCN)NC(=O)Nc2ccc(-c3nc4ccccc4o3)cc2)cc1 [Compound 270, (S)-6-AMINO-2-[3-(4-BENZOOXAZOL-2-YL-PHENYL)-UREIDO]-HEXANOIC ACID P-TOLYLAMIDE]	10000 to 50000 nM	> 2000 nM	<20	–
Cc1ccc(NC(=O)C(CCCCN)NC(=O)Nc2nnc(COc3ccc(C)cc3)s2)cc1 [Compound 272, (S)-6-AMINO-2-[3-(5-P-TOLYLOXYMETHYL-[1,3,4] THIADIAZOL-2-YL)-UREIDO]-HEXANOIC ACID P-TOLYLAMIDE]	10000 to 50000 nM	500 to 2000 nM	20 to 100	–
Cc1cc2cc(NC(=O)[C@H](CCCNC(=O)CN)NC(=O)Nc3ccc4c(c3)Cc3ccccc3-4)ccc2[nH]1 [Compound 297, (S)-5-(2-AMINO-ACETYLAMINO)-2-[3-(9H-FLUOREN-2-YL)-UREIDO]-PENTANOIC ACID (2-METHYL-1H-INDOL-5-YL)-AMIDE]	< 10000 nM	< 500 nM	>100	EC50 ([7]; Hepatitis C virus): < 500 nM; Selectivity Index (CC50/EC50) [7]: >100
CC1CCC(NC(=O)[C@H](CNC(=O)CN)NC(=O)Nc2ccc(OCc3ccccc3)cc2)CC1 (stereo partly drawn) [Compound 306, (S)-3-(2-AMINO-ACETYLAMINO)-2-[3-(4-BENZYLOXY-PHENYL)-UREIDO]-N-(4-METHYL-CYCLOHEXYL)-PROPIONAMIDE]	10000 to 50000 nM	> 2000 nM	<20	–
NCCCCN(CC(=O)Nc1ccc(C2CCCCC2)cc1)C(=O)Nc1ccc(C=Cc2ccccc2)cc1 [Compound 324, 2-[1-(4-AMINO-BUTYL)-3-(4-STYRYL-PHENYL)-UREIDO]-N-(4-CYCLOHEXYL-PHENYL)-ACETAMIDE]	10000 to 50000 nM	> 2000 nM	<20	–
Cc1ccc(NC(=O)[C@H](CCCCN)NC(=O)CNc2ccccc2Oc2ccccc2)cc1 [Compound 366, (S)-6-AMINO-2-[2-(2-PHENOXY-PHENYLAMINO)-ACETYLAMINO]-HEXANOIC ACID P-TOLYLAMIDE]	< 10000 nM	> 2000 nM	<20	–
Cc1ccc(NC(=O)[C@H](CCCCN)NC(=O)CNc2cccc(Oc3ccccc3)c2)cc1 [Compound 367, (S)-6-AMINO-2-[2-(3-PHENOXY-PHENYLAMINO)-ACETYLAMINO]-HEXANOIC ACID P-TOLYLAMIDE]	< 10000 nM	> 2000 nM	<20	–
Cc1ccc(NC(=O)[C@H](CCCCN)NC(=O)CNc2ccc(Oc3ccccc3)cc2)cc1 [Compound 368, (S)-6-AMINO-2-[2-(4-PHENOXY-PHENYLAMINO)-ACETYLAMINO]-HEXANOIC ACID P-TOLYLAMIDE]	< 10000 nM	500 to 2000 nM	<20	–
